The target of the assay is T1, Glucocorticoid receptor (Homo sapiens, UniProt P04150).
T1 sequence (P04150 whole entry): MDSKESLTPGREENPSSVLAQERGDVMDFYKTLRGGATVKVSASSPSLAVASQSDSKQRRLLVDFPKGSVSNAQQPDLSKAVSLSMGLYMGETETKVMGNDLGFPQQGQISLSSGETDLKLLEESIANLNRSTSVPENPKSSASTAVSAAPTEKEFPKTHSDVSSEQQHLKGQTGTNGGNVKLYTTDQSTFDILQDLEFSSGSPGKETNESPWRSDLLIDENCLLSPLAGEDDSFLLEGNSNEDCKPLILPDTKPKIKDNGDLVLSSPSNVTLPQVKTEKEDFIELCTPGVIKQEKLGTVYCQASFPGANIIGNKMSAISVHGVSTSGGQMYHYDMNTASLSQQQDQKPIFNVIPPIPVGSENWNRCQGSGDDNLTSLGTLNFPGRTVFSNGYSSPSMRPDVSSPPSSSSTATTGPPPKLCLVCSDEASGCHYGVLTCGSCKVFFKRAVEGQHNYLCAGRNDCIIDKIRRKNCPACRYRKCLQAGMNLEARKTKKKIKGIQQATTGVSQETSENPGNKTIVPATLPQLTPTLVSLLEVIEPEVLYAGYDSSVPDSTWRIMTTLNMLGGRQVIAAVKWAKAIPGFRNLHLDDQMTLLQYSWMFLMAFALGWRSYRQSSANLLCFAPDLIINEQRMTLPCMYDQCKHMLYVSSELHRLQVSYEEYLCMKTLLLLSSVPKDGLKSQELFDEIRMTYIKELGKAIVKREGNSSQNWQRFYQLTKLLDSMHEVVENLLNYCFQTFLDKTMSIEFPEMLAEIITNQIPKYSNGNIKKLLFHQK
Put plainly: Binding affinity to glucocorticoid receptor by GR binding assay.
As usually defined, the IC50 is the concentration that inhibits the measured activity by half. High values mean weaker potency, low ones greater potency. The compound `COc1cc(C[C@@H](C)[C@H](C)Cc2ccc(O)c(OC)c2)ccc1O` [(-)-DIHYDROGUAIARETICACID] registered a half-inhibitory concentration (IC50) of 35 µM.
Compound `COc1cc([C@@H]2[C@@H](C)[C@H](C)[C@H]2c2ccc(OC(C)=O)c(OC)c2)ccc1OC(C)=O` [DI-O-ACETYLENDIANDRIN A] displayed an IC50 of 34 µM.
The figure for `COc1ccc([C@@H]2[C@@H](C)[C@H](C)[C@H]2c2ccc(OC)c(OC)c2)cc1OC` [DI-O-METHYLENDIANDRIN A] is 13 µM.
Consider `COc1cc([C@@H]2[C@@H](C)[C@H](C)[C@H]2c2ccc(O)c(OC)c2)ccc1O` [ENDIANDRIN A], for which the IC50 amounted to 0.9 µM.
The compound `COc1cc([C@H]2O[C@@H](c3ccc(O)c(OC)c3)[C@H](C)[C@@H]2C)ccc1O` [NECTANDRIN B] returned a concentration for half-maximal inhibition (IC50) of 27 µM.
